The values that follow come from patent US11040986B2, “Crystalline forms of cabotegravir sodium” (Sandoz AG, priority 2017, dated 2021).

The nature of series [1]: competitive slurry experiments with Form A and Form B in 2-butanone. Type of series: physicochemical. The conditions noted are these: for Sample 1 after 1 day (solid form) / Sample 2 after 2 days (solid form) / Sample 3 after 6 days (solid form) / Result (solid form after slurrying): 2-butanone; for Result (solid form after slurrying): equal amounts of Form A and Form B. As for the experimental part:
Competitive slurry experiments in 2-butanone were performed by suspending equal amounts of Form A (approximately 50 mg, prepared according to Reference Example 1 herein) and Form B (approximately 50 mg, prepared according to Example 1 herein) in 2-butanone (4 mL) and vigorously stirring the obtained suspension using a magnetic stirrer at 20° C.; 40° C., 60° C. and 80° C. respectively.

Series [2] in a line: equilibrium slurry experiments starting from cabotegravir sodium Form A (solvent-mediated phase transformation, PXRD). Type of series: physicochemical. The conditions noted are these: for Result (PXRD): 7 days. As for the experimental part: […] After 7 days, the solids were collected by filtration dried under vacuum (30 mbar) at room temperature for 20 hours and analyzed by PXRD.
PXRD was performed with a PANalytical X'Pert PRO diffractometer equipped with a theta/theta coupled goniometer in transmission geometry, Cu-Kalpha1,2 radiation (wavelength 0.15419 nm) with a focusing mirror and a solid state PIXcel detector. Diffractograms were recorded at a tube voltage of 45 kV and a tube current of 40 mA, applying a stepsize of 0.013° 2-theta with 40 s per step (255 channels) in the angular range of 2° to 40° 2-theta at ambient conditions. A typical precision of the 2-theta values is in the range of ±0.2° 2-Theta, preferably of ±0.1° 2-Theta. Thus, the diffraction peak of cabotegravir sodium Form B that appears for example at 6.8° 2-Theta can appear in the range of from 6.6 to 7.0° 2-Theta, preferably in the range of from 6.7 to 6.9° 2-Theta on most X-ray diffractometers under standard conditions. […]
[…] The suspension was vigorously stirred at 60° C. using a magnetic stirrer. After 2 days, the solid was collected by filtration dried under vacuum (30 mbar) at room temperature for 20 hours and analyzed by PXRD, which confirmed the receipt of Form C.

Each structure is given as a SMILES string.

`C[C@H]1CO[C@@H]2Cn3cc(C(=O)NCc4ccc(F)cc4F)c(=O)c([O-])c3C(=O)N12.[Na+]` [Form A + Form B, cabotegravir sodium]: in series [1] (20° C.), the “Sample 1 after 1 day (solid form)” value was “Form B”, the “Sample 2 after 2 days (solid form)” value is “Form B”, the “Sample 3 after 6 days (solid form)” value was “Form B” and the “Result (solid form after slurrying)” value is “Form B”. For the same molecule, in series [1] (40° C.), the “Sample 1 after 1 day (solid form)” value was “Form B”, the “Sample 2 after 2 days (solid form)” value is listed as “Form B”, the “Sample 3 after 6 days (solid form)” value is “Form B” and the “Result (solid form after slurrying)” value was “Form B”. In addition, in series [1] (60° C.), the “Sample 1 after 1 day (solid form)” value is “Form B”, the “Sample 2 after 2 days (solid form)” value is “Form B”, the “Sample 3 after 6 days (solid form)” value is “Form B” and the “Result (solid form after slurrying)” value was “Form B”. Further, in series [1] (80° C.), the “Sample 1 after 1 day (solid form)” value was “Form B”, the “Sample 2 after 2 days (solid form)” value is on record as “Form B”, the “Sample 3 after 6 days (solid form)” value is “Form B” and the “Result (solid form after slurrying)” value was “Form B”.
For `C[C@H]1CO[C@@H]2Cn3cc(C(=O)NCc4ccc(F)cc4F)c(=O)c([O-])c3C(=O)N12.[Na+]` [Form A, cabotegravir sodium], the “Result (PXRD)” value is listed as “Form B” in series [2] (1,4-dioxane 5 mL, room temperature); “Form B” in series [2] (2-butanone 5 mL, room temperature); “Form B” in series [2] (acetone 5 mL, room temperature); “Form B” in series [2] (methyl acetate 5 mL, room temperature); “Form B” in series [2] (tetrahydrofuran 5 mL, room temperature). Moreover, the “Result (solid form after slurrying)” value in series [2] (1,4-dioxane, room temperature) was “Form B”; in series [2] (2-butanone, 20° C.) it was “Form B”; in series [2] (2-butanone, 40° C.), “Form B”; in series [2] (2-butanone, 60° C.) it was “Form B”; in series [2] (2-butanone, 80° C.), “Form B”; in series [2] (2-butanone, room temperature), “Form B”. Moreover, the “Result (solid form after slurrying)” value is on record as “Form B” in series [2] (acetone, room temperature); “Form B” in series [2] (methyl acetate, room temperature); “Form C” in series [2] (methylisobutyl ketone, 60° C.); “Form C” in series [2] (methylisobutyl ketone, room temperature); “Form B” in series [2] (tetrahydrofuran, room temperature). Moreover, in series [2] (methylisobutyl ketone 20 mL, 60° C., 2 days), the “solid form by PXRD after slurrying” value is reported as “Form C”.
Consider `C[C@H]1CO[C@@H]2Cn3cc(C(=O)NCc4ccc(F)cc4F)c(=O)c([O-])c3C(=O)N12.[Na+]` [Form B, cabotegravir sodium], for which the “thermodynamic stability relative to Form A” value in series [1] (competitive slurry in 2-butanone, 20 to 80° C.) is “thermodynamically more stable than Form A”; in series [2] (slurry experiments of Table 1, at least under the tested conditions) it was “thermodynamically more stable than prior art Form A”.
